The target of series [1] is T1, serotonine (5-HT) reuptake in synaptosomes (Rattus norvegicus, UniProt P31652).
T1 construct: in synaptosomes as described in WO 97/16451; from tissue; host or cells: synaptosomes (brain tissue)
The experiment in a line: Inhibition of 5-HT reuptake in synaptosomes. In kind it is biochemical. Conditions: 3H-5-HT, read-out: 5-HT-uptake IC50. As for the experimental part:
(§1) A number of compounds were tested for their ability to inhibit the reuptake of the monoamine neurotransmitters dopamine (DA) noradrenaline (NA) and serotonine (5-HT) in synaptosomes as described in WO 97/16451.
(§2) The test values are given as IC50 (the concentration (μM) of the test substance which inhibits the specific binding of ^3H-DA, ^3H-NA, or ^3H-5-HT by 50%).

Series [2] concerns the target T2, dopamine (DA) reuptake in synaptosomes (Rattus norvegicus, UniProt P23977).
T2 construct: in synaptosomes as described in WO 97/16451; from tissue; host or cells: synaptosomes (brain tissue)
As to the kind of experiment: Inhibition of DA reuptake in synaptosomes. It counts as biochemical. The conditions noted are these: 3H-DA, read-out: DA-uptake IC50. The procedure: as §1, §2

Series [3] has as its target T3, noradrenaline (NA) reuptake in synaptosomes (Rattus norvegicus).
T3 construct: in synaptosomes as described in WO 97/16451; from tissue; host or cells: synaptosomes (brain tissue)
As to the kind of experiment: Inhibition of NA reuptake in synaptosomes. It counts as biochemical. Conditions: 3H-NA, read-out: NA-uptake IC50. The procedure:
as §1, §2

pIC50: −log10 of the molar value. Counter-ions that a name gives are not always drawn.

Broadly, the melting point is the temperature of the solid-liquid transition. The pIC50 is −log10 of the IC50, conventionally taken in molar units.

T2 sequence (P23977 whole entry): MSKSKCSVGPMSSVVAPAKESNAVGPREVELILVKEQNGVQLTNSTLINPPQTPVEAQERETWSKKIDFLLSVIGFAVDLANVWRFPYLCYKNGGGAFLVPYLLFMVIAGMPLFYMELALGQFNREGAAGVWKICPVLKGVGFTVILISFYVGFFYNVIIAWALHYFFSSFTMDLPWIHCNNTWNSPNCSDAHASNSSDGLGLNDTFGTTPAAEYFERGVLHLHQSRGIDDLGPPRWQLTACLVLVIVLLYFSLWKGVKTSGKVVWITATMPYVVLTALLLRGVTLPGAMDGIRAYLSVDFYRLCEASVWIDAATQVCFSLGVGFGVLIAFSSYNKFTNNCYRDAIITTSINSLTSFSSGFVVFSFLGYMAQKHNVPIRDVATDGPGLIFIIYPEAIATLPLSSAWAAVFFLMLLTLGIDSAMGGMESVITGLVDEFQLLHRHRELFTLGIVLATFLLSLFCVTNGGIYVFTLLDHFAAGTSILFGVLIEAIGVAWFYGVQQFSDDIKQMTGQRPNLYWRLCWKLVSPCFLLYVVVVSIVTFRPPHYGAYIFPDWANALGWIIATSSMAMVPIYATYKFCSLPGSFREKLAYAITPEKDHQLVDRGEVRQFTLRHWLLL
T3 sequence (Q63380 1-617): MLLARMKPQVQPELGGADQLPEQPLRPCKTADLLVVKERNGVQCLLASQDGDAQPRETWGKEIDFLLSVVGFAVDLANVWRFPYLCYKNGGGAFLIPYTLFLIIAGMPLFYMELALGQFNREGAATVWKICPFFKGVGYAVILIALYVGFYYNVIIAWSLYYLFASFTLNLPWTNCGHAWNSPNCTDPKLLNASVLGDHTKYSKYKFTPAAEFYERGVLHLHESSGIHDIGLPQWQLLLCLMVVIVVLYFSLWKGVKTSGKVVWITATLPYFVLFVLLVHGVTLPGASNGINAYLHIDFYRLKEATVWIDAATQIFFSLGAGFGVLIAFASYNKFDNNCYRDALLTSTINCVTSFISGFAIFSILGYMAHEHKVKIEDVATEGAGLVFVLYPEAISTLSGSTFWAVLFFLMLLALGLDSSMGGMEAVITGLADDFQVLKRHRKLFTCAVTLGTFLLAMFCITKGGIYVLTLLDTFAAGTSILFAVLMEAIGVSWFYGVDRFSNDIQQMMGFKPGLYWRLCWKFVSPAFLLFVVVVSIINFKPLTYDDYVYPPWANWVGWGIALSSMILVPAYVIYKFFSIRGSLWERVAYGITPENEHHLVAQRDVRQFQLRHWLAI
T1 sequence (P31652 whole entry): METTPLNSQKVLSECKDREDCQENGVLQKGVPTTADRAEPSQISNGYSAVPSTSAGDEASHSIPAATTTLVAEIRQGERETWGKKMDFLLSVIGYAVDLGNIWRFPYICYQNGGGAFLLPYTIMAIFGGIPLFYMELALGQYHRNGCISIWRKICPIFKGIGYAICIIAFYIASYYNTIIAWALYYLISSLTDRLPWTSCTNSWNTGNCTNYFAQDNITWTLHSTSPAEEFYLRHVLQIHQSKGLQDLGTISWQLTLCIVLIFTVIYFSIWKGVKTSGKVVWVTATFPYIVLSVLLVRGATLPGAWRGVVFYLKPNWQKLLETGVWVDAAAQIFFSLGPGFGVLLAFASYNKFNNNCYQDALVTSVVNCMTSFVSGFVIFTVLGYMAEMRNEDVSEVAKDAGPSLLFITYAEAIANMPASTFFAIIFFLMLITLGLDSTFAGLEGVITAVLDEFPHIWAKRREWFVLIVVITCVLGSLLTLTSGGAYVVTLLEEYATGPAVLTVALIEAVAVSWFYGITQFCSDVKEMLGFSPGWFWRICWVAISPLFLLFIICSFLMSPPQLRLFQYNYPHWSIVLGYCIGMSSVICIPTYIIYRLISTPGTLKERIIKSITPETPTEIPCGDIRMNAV

In turn, `CCOCC1(Cc2ccc(Cl)c(Cl)c2)CCNCC1.O=C(O)/C=C/C(=O)O` displayed a melting point of 147.4 to 150.6 °C. As to `Clc1ccc(CC2(COc3ccccc3)CCNCC2)cc1Cl` (as salt: fumarate) [Compound 5ac, 4-(3,4-Dichloro-benzyl)-4-phenoxymethyl-piperidine], the melting point lay within 165 to 167 °C. For `Clc1ccc(CC2(COc3ccc(Cl)c(Cl)c3)CCNCC2)cc1Cl` (as salt: fumarate) [Compound 5ae, 4-(3,4-Dichloro-benzyl)-4-(3,4-dichloro-phenoxymethyl)-piperidine], the melting point was in the range of 166.3 to 168.9 °C. The same measure, in the same setting: in the case of `COCC1(Cc2cccc(Cl)c2Cl)CCNCC1` (as salt: fumarate) [Compound 5ba, 4-(2,3-Dichloro-benzyl)-4-methoxymethyl-piperidine] it was 167 to 168.4 °C. Same read-out and setting: then `COCC1(Cc2ccc3ccccc3c2)CCNCC1` (as salt: fumarate) [Compound 5da, 4-Methoxymethyl-4-naphthalen-2-ylmethyl-piperidine], with 139 to 142 °C.

For the compound `OCC1(Cc2ccc(Cl)c(Cl)c2)CCNCC1` [Compound 5a, [4-(3,4-Dichloro-benzyl)-piperidin-4-yl]-methanol], the melting point lay in the range of 147.7 to 148.7 °C. `COCC1(Cc2ccc(Cl)c(Cl)c2)CCNCC1.O=C(O)/C=C/C(=O)O` [Compound 5aa, 4-(3,4-Dichloro-benzyl)-4-methoxymethyl-piperidine fumaric acid salt] registered a melting point of 158.1 to 162.2 °C. Besides, the pIC50 in series [1] is 7.66. Also, in series [2], the pIC50 was 5.80. Moreover, in series [3], the pIC50 is 6.32. `Clc1ccc(CC2(COc3cccc(Cl)c3Cl)CCNCC2)cc1Cl` [Compound 5ad, 4-(3,4-Dichloro-benzyl)-4-(2,3-dichloro-phenoxymethyl)-piperidine] displayed a melting point of 93.9 to 94.6 °C. In turn, `Clc1ccc(OCC2(Cc3ccccc3)CCNCC2)cc1Cl` [Compound 5ce, 4-Benzyl-4-(3,4-dichloro-phenoxymethyl)-piperidine] had a melting point of 77.7 to 79.3 °C. Also, the pIC50 in series [1] is 9.59. In series [2], the pIC50 is 8.22. The negative logarithm of the IC50 (pIC50) in series [3] is 8.32.

These data come from patent US20110046179A1, “NOVEL PIPERIDINE DERIVATIVES AND THEIR USE AS MONOAMINE NEUROTRANSMITTER RE-UPTAKE INHIBITORS” (priority 2006, published 2011).
